Laboratory results published in patent US20040109845A1, “Method for inhibiting articular cartilage matrix calcification” (priority 2001, published 2004).
Entries after “also recorded” stand apart in the source; their conditions may differ.

Legend:
[1] = system: TGase activity (tTGase and Factor XIIIa) in meniscal cells; test: TGase activity in cultured knee meniscal cells (BP incorporation into N,N-dimethylcasein); type: cell-based, human; details: monolayer culture, 48-72 hrs; IL-1β, TGFβ, TNFα 10 ng/ml; Noc-12 2.5-25 μM; Sin-1 1-10 μM
Experimental: Meniscal cells were maintained in DMEM high glucose and supplemented with 10% FCS, 1% L-glutamine, 100 units/ml Penicillin and 50 μg/ml Streptomycin (Omega Scientific, Tarzana, Calif.) and cultured at 37° C. with 5% CO2. In monolayer cell culture studies involving stimulation by TGFE[…] or IL-1, the cells were placed in DMEM high glucose containing 1% FCS, 1% L-glutamine, 100 units/ml Penicillin and 50 μg/ml Streptomycin. In all other studies, the cells were cultured in complete medium (as described above). Only primary or first passage meniscal cells were studied.
(§1) TGase activity was measured by modifications to a previously described method (35). Specifically, we coated 96 well ImmunoModule plates (Nunc, Rochester, N.Y.) with 200 μl of 20 mg/ml N,N-dimethylcasein for 1 hr at 23° C. The N,N-dimethylcasein was removed and nonspecific protein binding was blocked by adding 3% BSA in 100 mM Tris, pH 8.5, 150 mM NaCl, 0.05% Tween-20 (TBST) to each well for an additional 1 hr at 23° C. Then, aliquots of 5 μg of total cellular protein from meniscal or TC28 cells that had been lysed and sonicated (in 5 mM Tris HCl, 0.25 M sucrose, 0.2 mM MgSO4, 2 mM DTT, 0.4 mM PMSF, 0.4% Triton X100, pH 7.5), were added to the plate in triplicate. To measure TGase in extracts of whole menisci, 50 mg dry weight of tissue from the central zone of each medial meniscus was used as the source (after solubilization and sonication) for aliquots of 5 μg of soluble protein. Fifty μl of solution A (100 mM Tris, pH 8.5 and 20 mM CaCl2) was added to all samples for TGase assay, followed by the addition of 50 μl of solution B (100 mM Tris, pH 8.5, 40 mM DTT and freshly added 2 mM 5-(Biotinamido) pentylamine (BP)). The plates were incubated for 1 hr at 37° C. The wells were washed once with TBST containing 1 mM EDTA and then three times with TBST. One hundred μl of a 1:500 dilution of streptavidin-AP in 3% BSA/TBST was added to each well for 1 hr at 23° C. The wells were washed twice with TBST, and 200 μl of solution C (100 mM Tris, pH 9.8, mM NaCl, 5 mM MgCl2, 1 mg/ml of freshly added p-nitrophenylphosphate) was added to each well. Readings at OD410 were taken over 15 minutes. Purified guinea pig liver TGase (Sigma) was used to prepare a standard curve. TGase activity was designated as the amount of BP incorporated into casein (per μg cellular DNA, determined chromogenically following precipitation in perchlorate (28), or, where indicated, per μg protein, determined as previously described (28)).
To directly induce expression of each TGase in meniscal cells, 5×10^5 primary cells were plated in 60 mm dishes and allowed to adhere overnight. We modified (28) the manufacturer's protocol for the Lipofectamine Plus kit (Life Technologies, Grand Island, N.Y.). To optimize the transfection of meniscal cells, we added 2.0 ml of serum-free DMEM/F12 containing 0.00015% digitonin to washed cells and incubated for 3 min at 23° C. Then, media was removed, and cells transfected at 37° C. for 7 hrs, followed by removal of the media and addition of complete DMEM high glucose medium. Transfection of each TGase into TC28 cells was done by the same procedure, with the exception that the digitonin permeabilization step was omitted.

[2] = system: TGase activity in knee meniscal cells and TC28 cells; test: TGase activity in nonadherent nodule-forming culture on polyHEME; type: cell-based, human; details: polyHEME plates, β-glycerophosphate, ascorbate, dexamethasone, up to 10 days; cytokines 10 ng/ml or TGase transfection
Experimental: FIG. 10 refers to effects of direct Factor XIIIa and tTGase expression on TGase activity in meniscal cells and TC28 cells. Human chondrocytic TC28 cells or normal knee meniscal cells (5×10^5), were plated in 60 mm dishes and allowed to adhere overnight, as described in the Methods. Two μg of plasmid DNAs or empty plasmid vector were then transfected, performed as described above. After 24 hrs, the cells were removed from the dishes and plated on polyHEME-coated tissue culture plates and media supplemented with 10 mM P-glycerophosphate, ascorbatte (50 μg/ml) and dexamethasone (10^−8 M), which stimulated the cells to form mineralizing nodules for 3-10 days in culture. For comparison purposes, cells were treated only with IL-1 or TGFβ (10 ng/ml each) for up to 10 days. At each time point designated, the cell nodules were collected and lysed, and TGase activity then determined as previously described. For meniscal cells, data pooled from 6 donors studied in triplicate. For TC28 cells, n=6 each, studied in triplicate. Statistics not indicated on this graph, but p<0.05 for the increases in TGase activities in response to both Factor XIIIa and tTGase transfection, and for IL-1 treatment, at all time points.
as §1, with “One hundred μl of a 1:500 dilution of streptavidin-AP in 3% BSA/TBST was added to each well for 1 hr at 23° C. The wells were washed twice with TBST, and 200 μl of solution C (100 mM Tris, pH 9.8, mM NaCl, 5 mM MgCl2, 1 mg/ml of freshly added p-nitrophenylphosphate) was added to each well.” left out, “Purified guinea pig liver TGase (Sigma) was used to prepare a standard curve.” left out, “(28)). […]” for “(28)).”

[3] = system: alkaline phosphatase (AP); test: AP activity of cultured meniscal cells; type: cell-based, human; details: 48 h, 10 ng/ml
Experimental: (§2) Meniscal cells (from the same donors used in FIG. 3 above) were released from the matrix with collagenase digestion, and grown in monolayer culture for 72 hrs, then trypsinized and plated in 35 mm dishes (containing 3×10^5 cells) and allowed to adhere overnight. Cells were then treated for 48 h with 10 ng/ml of TGFβ or IL-1β (10 ng/ml) in 1% FCS-containing DMEM high glucose medium. The cells were collected and lysed for the TGase (FIG. 5A), NTPPPH (FIG. 5B), and AP (FIG. 5C) assays as described in the Methods. Five micrograms of soluble protein was studied in triplicate for each assay performed as previously described. Results were analyzed by linear regression, with results indicated.
(§3) PPi was determined by differential adsorption on activated charcoal of UDP-D-[6-^3H] glucose (Amersham, Chicago, Ill.) from the reaction product 6-phospho [6-^3H] gluconate (28). Units of NTPPPH and AP were designated as micromoles of substrate hydrolyzed per hour (per μg DNA in each sample) (28). NO release by cultured meniscal cells was measured using the Greiss reaction (33). Concentrations or specific activities of PPi, NTPPPH, and AP were equalized for cellular DNA concentrations in each well.

[4] = system: tTGase and Factor XIIIa expression in knee articular cartilage and medial meniscus; test: Immunohistochemistry of cartilage organ culture; type: cell-based, human; details: organ culture 48 hours
Experimental: Articular cartilage and medial menisci from normal donors were studied in cartilage organ culture in media supplemented with 1% FCS and 1% L-glutamine, as described in the Methods, following 48 hours of treatment with TGFβ 10 ng/ml, IL-1β (1 ng/ml), or medium alone.
Immunohistochemistry was performed as previously described in detail (30,33,34). In brief, immunohistochemical sections (5 microns) were pretreated with bovine testicular hyaluronidase (0.5 mg/ml at 37° C. for 30 min) and incubated in 5% normal goat or rabbit serum for 20 min prior to avidin/biotin peroxidase staining by the ABC method. Hematoxilin was used as the counterstain. Biotinylated anti-rabbit or anti-goat antibodies served as secondary antibodies. Levamisole was added to block endogenous alkaline phosphatase (AP). Negative controls were nonimmune rabbit or goat serum as a substitute for primary antibody.
Meniscal cells were taken from tissue slices removed from the central regions of the medial and lateral menisci. Where indicated, meniscal organ culture was performed by incubating these slices for b 48 hours in DMEM high glucose containing 1% FCS and 1% L-glutamine (and articular cartilage organ culture performed in the same manner, where indicated). Otherwise, we minced meniscal tissue with a scalpel, incubated in DMEM high glucose containing 2 mg/ml clostridial collagenase, 5% FCS, 1% L-glutamine, 100 units/ml Penicillin and 50 μg/ml Streptomycin (Omega Scientific, Tarzana, Calif.), and incubated on a gyratory shaker at 37° C. until the tissue fragments were digested. Residual multicellular aggregates were removed by sedimentation (1,000×g), and cells were washed three times in DMEM containing 5% FCS.

NTPPPH = NTPPPH activity of cultured meniscal cells; type: cell-based, human; details: 48 h, 10 ng/ml
Experimental: as §2, §3

[5] = system: meniscal cells and TC28 cells; test: Matrix calcification, quantitative Alizarin Red S binding assay; type: cell-based, human; details: polyHEME culture up to 10 days; cytokines 10 ng/ml or TGase transfection
Experimental: TC28 cells and meniscal cells were transfected with empty plasmid or a TGase expression construct, and then transferred to polyHEME and cultured for up to 10 days, as described above. For comparison purposes, control untransfected cells were treated with IL-1 or TGFβ(10 ng/ml each) for up to 10 days. To measure matrix calcification, media and cells were removed from the PolyHEME-coated dishes, and 1 ml Alizarin Red S solution (0.5% v/v Alizarin Red S, pH 5.0) added to washed plates at 23° C. for 10 min. After further washing, 100 mM Cetylpyridium Chloride was added for 10 min to release the remaining calcium-bound Alizarin Red S. The solution was collected and read at OD570, with 1.0 OD570=1 unit of Alizarin Red released per μg of DNA per culture dish. n=6 each, studied in triplicate, and using 6 different knee meniscal donors. *p<0.05.
To promote matrix calcification in short-term cultures, we modified a nonadherent chondrocyte culture system (37), and assessed cells that formed calcifying nodules over 10 days in culture. In brief, meniscal and TC28 cells, at 24 hours after the transfection, were washed and removed from the dish using 0.2 mg/ml EDTA, pH 8.0, then transferred to 6 well plates that had been previously coated with a 10% (wt./v) in 95% ethanol solution of Poly (2-Hydroxyethyl methacrylate) (polyHEME). […]
To assay calcification of the pericellular matrix of meniscal cells and TC28 cells, we used a quantitative Alizarin Red S binding assay (38). […] The solution was collected and read at OD570 on a SpectraMAX microplate reader (Molecular Devices, Sunnyvale, Calif.), with 1 OD570=1 unit of Alizarin Red released per μg of DNA per culture dish. We extracted matrix crystals from plates under each condition using a papain-hypochlorite method (39), and the crystals were embedded in Spurr epoxy resin, sectioned, and viewed on a Philips EM340 transmission electron micrograph and analyzed by electron diffraction (40,41).

[6] = system: S100A11 mRNA in human articular chondrocytes; test: S100A11 mRNA expression by RT-PCR; type: cell-based; details: 10 ng/ml, 24 hours, relative to L30
Experimental: Normal human knee articular chondrocytes were treated in culture with IL-1 or IGF-I (10 ng/ml) for 24 hours and ascertained for S100A11 mRNA expression by RT-PCR, relative to the loading control L30, a ribosomal housekeeping gene. Results for induction of S100 A11 representative of 3 separate experiments with different donors.

Q: Which results are given for “TGFβ: Human recombinant TGF-β1 purchased from R&D Systems”?
A: Induction of TGase activity in cultured normal knee meniscal cells [1]: did not induce TGase activity; also recorded: but not TGFβ; TGase activity under mineralizing nonadherent conditions [2]: did not significantly augment activity of TGase; AP activity [3]: did not significantly change; tTGase and Factor XIIIa immunostaining ([4]; knee articular cartilage and meniscal cartilage slices, TGFβ 10 ng/ml, IL-1β 1 ng/ml): induced increased tTGase and Factor XIIIa immunostaining; tTGase expression ([4]; knee articular cartilage): up-regulated tTGase expression; NTPPPH activity (NTPPPH): stimulated increased NTPPPH activity in association with aging

Q: With TNFα as the compound, how does the “Induction of TGase activity in cultured normal knee meniscal cells” value (“Induction of TGase activity” for short) [1] read?
A: stimulated increased TGase activity; also recorded: induce TGase activity

Q: `CCNCCN(CC)N(O)N=O` [Noc-12, reference compound] was tested. Which “Induction of TGase activity” value [1] did it give?
A: shared the ability of II-1 to induce TGase activity

Q: How did the “Induction of TGase activity” value [1] turn out when `[NH-]c1c[n+](N2CCOCC2)no1` [Sin-1, reference compound] was run?
A: shared the ability of II-1 to induce TGase activity

Q: “Factor XIIIa: recombinant human Factor XIIIa cDNA in pUC18, transfected into meniscal and TC28 cells” was tested. Which “Matrix calcification (bound Alizarin Red S)” value [5] did it give?
A: induced particularly marked increases in the amount of calcium precipitated in the matrix

Q: And the “TGase activity under mineralizing nonadherent conditions” value [2]?
A: markedly increased TGase activity

Q: With “tTGase: human 3.3 kb full length tTGase cDNA construct in pSG5, transfected into cells” as the compound, how does the “Matrix calcification (bound Alizarin Red S)” value [5] read?
A: induced particularly marked increases in the amount of calcium precipitated in the matrix

Q: And the “TGase activity under mineralizing nonadherent conditions” value [2]?
A: markedly increased TGase activity

Q: For “IGF-1: IGF-1, involved in the pathogenesis of osteoarthritis”, which “S100A11 mRNA expression” value [6] is on record?
A: induce mRNA expression of S100A11
